Measurements reported in the supplement of paper PMC10307832.

Key:
Test in all cases: relative viability (nuclei count vs DMSO), 5 days (fraction); higher = more cells survive
[1] = compound: NCC(=O)Nc1ccc(-n2nc(C(F)(F)F)cc2-c2ccc3c(ccc4ccccc43)c2)cc1 + Cc1cc(Nc2cc(N3CCN(C)CC3)nc(Sc3ccc(NC(=O)C4CC4)cc3)n2)n[nH]1 [Tozasertib] (partner 0.1 µM)
Outline: (§1)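 Lung cancer cell lines were pin-tool dosed in 1536-well plates on the day after seeding, with either a lone drug or a fixed anchor-drug dose plus five library-drug doses (not always all listed) in √10 steps. Nuclei were counted on 4× images after 5 days. Relative viability is the ratio of treated-well to vehicle-well nuclei counts, with each value a median of duplicate plates.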

[2] = compound: NCC(=O)Nc1ccc(-n2nc(C(F)(F)F)cc2-c2ccc3c(ccc4ccccc43)c2)cc1 + O=C(CCCCCCC(=O)Nc1ccccc1)NO [Vorinostat] (partner 1 µM)
Outline: as §1

[3] = compound: NCC(=O)Nc1ccc(-n2nc(C(F)(F)F)cc2-c2ccc3c(ccc4ccccc43)c2)cc1 + CC(=O)c1c(C)c2cnc(Nc3ccc(N4CCNCC4)cn3)nc2n(C2CCCC2)c1=O [Palbociclib] (partner 0.5 µM)
Outline: as §1

[4] = compound: NCC(=O)Nc1ccc(-n2nc(C(F)(F)F)cc2-c2ccc3c(ccc4ccccc43)c2)cc1 + CS(=O)(=O)N1CCN(Cc2cc3nc(-c4cccc5[nH]ncc45)nc(N4CCOCC4)c3s2)CC1 [Pictilisib] (partner 1 µM)
Outline: as §1

Row | Cell Line | relative viability ([1]; first compound 0.02 µM) | relative viability ([1]; first compound 0.06325 µM) | relative viability ([1]; first compound 0.2 µM) | relative viability ([1]; first compound 0.6325 µM) | relative viability ([1]; first compound 2 µM) | relative viability ([2]; first compound 0.02 µM) | relative viability ([2]; first compound 0.06325 µM) | relative viability ([2]; first compound 0.2 µM) | relative viability ([2]; first compound 0.6325 µM) | relative viability ([2]; first compound 2 µM) | relative viability ([3]; first compound 0.02 µM) | relative viability ([3]; first compound 0.06325 µM) | relative viability ([3]; first compound 0.2 µM) | relative viability ([3]; first compound 0.6325 µM) | relative viability ([3]; first compound 2 µM) | relative viability ([4]; first compound 0.02 µM) | relative viability ([4]; first compound 0.06325 µM) | relative viability ([4]; first compound 0.2 µM) | relative viability ([4]; first compound 0.6325 µM) | relative viability ([4]; first compound 2 µM)
1 | NCI-H2405 | 0.745 | 0.853 | 0.779 | 0.733 | 0.868 | 1.08 | 1.11 | 1.1 | 1.01 | 1.16 | 0.501 | 0.519 | 0.556 | 0.515 | 0.517 | 0.415 | 0.494 | 0.499 | 0.375 | 0.481
2 | NCI-H3122 | 0.412 | 0.431 | 0.391 | 0.366 | 0.236 | 1.03 | 0.997 | 0.995 | 0.942 | 0.797 | 0.197 | 0.182 | 0.179 | 0.206 | 0.155 | 0.696 | 0.592 | 0.532 | 0.571 | 0.628
3 | PC-3 [JPC-3] | 0.9 | 0.889 | 0.976 | 0.971 | 0.828 | 0.902 | 0.854 | 0.778 | 1.03 | 0.822 | 0.536 | 0.561 | 0.578 | 0.524 | 0.571 | 0.645 | 0.855 | 0.739 | 0.745 | 0.88
4 | PC-14 | 0.634 | 0.606 | 0.543 | 0.517 | 0.651 | 0.685 | 0.62 |  | 0.659 | 0.657 | 0.494 | 0.557 |  | 0.524 | 0.46 | 0.606 | 0.702 | 0.704 | 0.67 | 0.62
5 | RERF-LC-KJ | 0.449 | 0.548 | 0.555 | 0.552 | 0.403 | 0.59 | 0.652 | 0.609 | 0.758 | 0.772 | 0.936 | 1.2 | 1.03 | 1.06 | 1.02 | 0.568 | 0.62 | 0.663 | 0.66 | 0.517
6 | SK-LU-1 | 0.324 | 0.335 | 0.386 | 0.346 | 0.339 | 0.804 | 0.798 | 0.91 | 0.71 | 0.821 | 0.447 | 0.442 | 0.404 | 0.372 | 0.434 | 0.651 | 0.604 | 0.581 | 0.479 | 0.623
7 | SK-MES-1 | 0.939 | 1 | 0.914 | 0.866 | 0.856 | 1.06 | 1.07 | 1.17 | 1.02 | 1.23 | 0.34 | 0.294 | 0.329 | 0.325 | 0.387 | 0.382 | 0.313 | 0.334 | 0.355 | 0.42
8 | SW 1573 | 0.244 | 0.15 | 0.272 | 0.228 | 0.182 | 0.647 | 0.749 | 0.831 | 0.703 | 0.661 | 0.409 | 0.466 | 0.344 | 0.384 | 0.36 | 0.513 | 0.545 | 0.493 | 0.514 | 0.486
9 | UMC-11 | 0.191 | 0.21 | 0.218 | 0.19 | 0.183 | 0.337 | 0.434 | 0.511 | 0.355 | 0.383 | 0.301 | 0.305 | 0.297 | 0.325 | 0.344 | 0.835 | 0.866 | 0.858 | 0.732 | 0.828
